Measured values published in PubChem BioAssay AID489032 (Sanford-Burnham Center for Chemical Genomics, 2010).
Calls of active or inactive are those of the source. How the calls were made is not given here.

System: UPR adaptive arm reporter cells, luciferase luminescence
Experiment: adaptive unfolded protein response reporter activation – cell-based, luciferase luminescence, dose response (AID 489032)

## O=C(C[C@H]1C/C=C\C[C@@H](NC(=O)OCC2c3ccccc3-c3ccccc32)C(=O)O[C@@H](c2ccccc2)CNC1=O)N[C@H](CO)Cc1ccccc1
  EC50: 20 µM

## N#Cc1cc2c(nc1SCC(=O)Nc1sc3c(c1C#N)CCC3)CCCC2
  EC50: > 80 µM (inactive)

## CCc1nn(-c2cc(Oc3cccc4ccccc34)nc(-c3ccccc3)n2)c(N)c1C#N
  EC50: 49.2 µM (inactive)

## C=CCOc1ccc(/C=N/N2C(=O)C(CC(=O)Nc3ccc(F)cc3F)SC2=NC)cc1 (centres undefined)
  EC50: > 80 µM (inactive)

## COc1cccc(/C=N/Nc2ccc([N+](=O)[O-])cn2)c1O
  EC50: > 80 µM (inactive)

## CCOC(=O)c1nnc(-c2ccc(C)cc2)nc1Sc1cccc(Cl)c1
  EC50: > 80 µM (inactive)

## CCOC(=O)Cc1csc(/N=C/c2c(O)n(-c3ccc(C)c(C)c3)c(=O)c3ccccc23)n1
  EC50: > 80 µM (inactive)

## CCOC(=O)c1c(NC(=O)c2cc3n(n2)C(C(F)(F)F)CC(c2cccs2)N3)sc(C)c1C (centres undefined)
  EC50: 15.9 µM

## COc1ccccc1NC(=O)c1cc2c(CO)cnc(C)c2oc1=Nc1ccccc1
  EC50: 25.7 µM (inactive)

## Cc1cc(-n2c(SCC(=O)Nc3ccc(F)c(F)c3)nc3n[nH]c(C)c3c2=N)ccc1Cl
  EC50: > 80 µM (inactive)

## O=C(Nc1ccc(Oc2ccc(NC(=O)Nc3ccccc3Cl)cc2)cc1)Nc1ccccc1Cl
  EC50: > 80 µM (inactive)

## O=C(/C=C\c1cn(-c2ccccc2)nc1-c1ccccc1)Nc1nccs1
  EC50: > 80 µM (inactive)

## O=C(Oc1ccc(F)cc1C(=O)/C=C/c1cccs1)c1cccc([N+](=O)[O-])c1
  EC50: 51.3 µM (inactive)

## Clc1ccc2c(c1)C(N1CCNCC1)Cc1ccccc1S2 (centres undefined)
  EC50: > 80 µM (inactive)

## COc1ccc(-c2cc(-c3ccccc3)c(C#N)c(S(C)(=O)=O)n2)cc1
  EC50: 4.88 µM

## NS(=O)(=O)c1ccc(N/N=C/c2cn(-c3ccccc3)nc2-c2ccccc2)c([N+](=O)[O-])c1
  EC50: > 80 µM (inactive)

## Cc1ccnc(N/C=C(\C#N)c2nc(-c3cccc(Br)c3)cs2)c1
  EC50: 20.7 µM (inactive)

## CC(C)=CCCC1(C)C=Cc2c(c(C)cc3c2[nH]c2cc(O)ccc23)O1 (centres undefined)
  EC50: > 80 µM (inactive)

## COc1cc(-c2ccc3oc(-c4ccsc4)cc3c2)cc(OC)c1OC
  EC50: > 80 µM (inactive)

## Cc1ccc(S(=O)(=O)Cc2cc(F)c([N+](=O)[O-])cc2[N+](=O)[O-])cc1
  EC50: > 80 µM (inactive)

## CCCCCCCCCCOC(=O)Cn1c(COc2ccc(Cl)cc2)[n+](C)c2ccccc21
  EC50: > 80 µM (inactive)

## COc1cc(/C=C2\CC(C(C)(C)C)C/C(=C\c3cc(OC)c(OC)c(OC)c3)C2=O)cc(OC)c1OC (centres undefined)
  EC50: 39.3 µM (inactive)

## O=C(NCCC1=CCCCC1)C(=O)NCC(c1ccco1)N1CCN(c2ccc(F)cc2)CC1 (centres undefined)
  EC50: > 80 µM (inactive)

## Oc1ccc(Br)cc1/C=N/Nc1ccccn1
  EC50: > 80 µM (inactive)

## Cn1cc(/C=C(\C#N)C(=O)Nc2cccc([N+](=O)[O-])c2)c2ccccc21
  EC50: > 80 µM (inactive)

## Cc1ccc(-c2nnc(-c3ccc(NC(=O)Cc4cccs4)cc3)o2)cc1
  EC50: > 80 µM (inactive)

## Cc1ccc(Cl)cc1N1CCN(Cc2nc3c(c(=O)[nH]c(=O)n3C)n2CCc2ccccc2)CC1
  EC50: > 80 µM (inactive)

## N#Cc1ccc(-c2ccc(Cl)cc2)nc1SCC(=O)c1cccc(Cl)c1
  EC50: 11 µM

## CN(C)CCCN(C(=O)c1ccc(S(=O)(=O)N2CCCCCC2)cc1)c1nc2ccc(Br)cc2s1
  EC50: > 80 µM (inactive)

## Nc1nc(SCc2ccc(Cl)cc2Cl)nc2nc3c(cc12)CCCC3
  EC50: > 80 µM (inactive)

## Cc1nc(NC(=O)CSc2ccc(-c3nc4ccccc4[nH]3)cn2)sc1C
  EC50: > 80 µM (inactive)

## Cc1ccc(C2=Nc3ccc(Br)cc3C(c3ccncc3)=NN2)cc1
  EC50: 24 µM (inactive)

## CC1CCN(Cc2c(C(=O)N/N=C/c3ccc(C(C)(C)C)cc3)nnn2-c2nonc2N)CC1
  EC50: > 80 µM (inactive)

## O=C(Nc1ccc2oc(-c3ccccc3Cl)nc2c1)c1cncc(Br)c1
  EC50: > 80 µM (inactive)

## CCc1ccccc1NC(=O)C(CC)Sc1nc2cc3c(cc2c(=O)n1Cc1ccco1)OCO3 (centres undefined)
  EC50: 14.6 µM

## COc1ccc(C2c3ccc4ccccc4c3Oc3ncn(CCCN(C)C)c(=N)c32)cc1 (centres undefined)
  EC50: > 80 µM (inactive)

## Cn1nc(C(F)(F)F)c(/C=N/OC(=O)c2ccccc2Cl)c1SCc1ccccc1Cl
  EC50: 22.2 µM (inactive)

## N#C/C(=C\Nc1ccc2cn[nH]c2c1)c1nc(-c2ccc(Cl)cc2)cs1
  EC50: 15.1 µM

## CCOC(=O)C1=C(C)N=c2s/c(=C3/C(=O)Nc4ccccc43)c(=O)n2C1c1ccc(C)cc1 (centres undefined)
  EC50: > 80 µM (inactive)

## O=C(Nc1ccc(NC(=O)c2sc3ccccc3c2Cl)cc1Cl)c1ccco1
  EC50: 22 µM (inactive)

## CCCNC(=O)c1c(N)n(-c2ccc3c(c2)OCO3)c2nc3ccccc3nc12
  EC50: > 80 µM (inactive)

## COc1ccccc1Nc1nnc(SCC(=O)NC(=O)Nc2ccc3c(c2)OCCO3)s1
  EC50: > 80 µM (inactive)

## COc1cc(/C=N/Nc2nc(Nc3ccccc3)nc(-n3nc(C)cc3C)n2)cc(OC)c1OC
  EC50: > 80 µM (inactive)

## CN(C)CCCNC(=O)c1ccc(-c2nc(-c3ccc(Cl)cc3)cs2)cc1
  EC50: > 80 µM (inactive)

## O=C(Nc1nc(-c2ccc(F)c(F)c2)cs1)Nc1ccc(F)cc1F
  EC50: 37.2 µM (inactive)

## CCOC(=O)c1nnc(-c2ccccc2)nc1Sc1c(Cl)cccc1Cl
  EC50: > 80 µM (inactive)

## C=CCN(CC=C)S(=O)(=O)c1ccc(C(=O)Nc2nc3c(s2)CCc2ccccc2-3)cc1
  EC50: 39.9 µM (inactive)

## CC1CCc2c(sc(NC(=O)CCc3nc4ccccc4c(=O)[nH]3)c2C#N)C1 (centres undefined)
  EC50: 30.3 µM (inactive)

## COc1ccc(-c2nnc(SCC(=O)Nc3sc4c(c3C#N)CCCC4)n2-c2ccccc2)cc1
  EC50: > 80 µM (inactive)

## CCOC(=O)c1nnc(-c2ccc(C)cc2)nc1Sc1ccccc1Cl
  EC50: > 80 µM (inactive)

## CC(C)(C)c1ccc(C(=O)Nc2ccc(O)c3c(=O)cc(-c4cccc(Cl)c4)oc23)cc1
  EC50: > 80 µM (inactive)

## Cc1ccc(C(C)C)c(OCc2ccc(C(=O)N/N=C/c3ccc(O)c(O)c3)cc2)c1
  EC50: 8.24 µM

## COC(=O)C1C(O)=C(C=Nc2cccc3ccccc23)C(=O)CC1(C)C (centres undefined)
  EC50: 30.1 µM (inactive)

## CCC(=O)Nc1nnc(SCC(=O)c2ccc3c(c2)Cc2ccccc2-3)s1
  EC50: > 80 µM (inactive)

## Cc1nc(SCC(=O)Nc2ccc(F)cc2)c(C#N)c(C)c1CC(=O)c1ccc(Br)cc1
  EC50: > 80 µM (inactive)

## COc1ccc(-c2csc(NC(=S)NC(=O)/C=C/c3ccccc3)n2)cc1Br
  EC50: 13.2 µM

## CCCCCc1nc2c(c(=O)c3ccccc3n2C)c(=O)n1C1CCCCCC1
  EC50: > 80 µM (inactive)

## NS(=O)(=O)c1ccc(NC(=O)COC(=O)c2cn(-c3ccccc3)nc2-c2ccc(F)cc2)cc1
  EC50: > 80 µM (inactive)

## CCOC(=O)c1sc(NC(=S)NC(=O)c2ccccc2)c(C(=O)OCC)c1C
  EC50: > 80 µM (inactive)

## CC(C)N(C(=O)[C@H]1C[C@H](CC(=O)NCc2cccc(C(F)(F)F)c2)C(=O)N2CCc3c([nH]c4ccc(Cl)cc34)[C@]12C)C(C)C
  EC50: > 80 µM (inactive)

## CC(C)c1ccc(C2C3=C(COC3=O)Nc3cc4c(cc32)OCO4)cc1 (centres undefined)
  EC50: 48.9 µM (inactive)

## COc1cc(SC#N)ccc1N=Cc1c(C)[nH]n(-c2ccc(C)c(C)c2)c1=O
  EC50: > 80 µM (inactive)

## CCN(CC)c1ccc(N=Cc2c(O)n(-c3ccc(Cl)cc3)c(=O)[nH]c2=O)cc1
  EC50: 22.7 µM (inactive)

## COc1ccc2cc1Oc1ccc(cc1)C[C@H]1c3c(cc(OC)c4c3Oc3c(ccc5c3[C@H](C2)N(C)CC5)O4)CCN1C
  EC50: > 80 µM (inactive)

## CC(C)C(=O)N(c1cc2sc(=O)oc2c2ccccc12)S(=O)(=O)c1cccs1
  EC50: > 80 µM (inactive)

## COc1ccccc1-c1sc2cc3c(cc2c1-c1ccc(OCCN2CCCCC2)cc1)OCO3
  EC50: > 80 µM (inactive)

## Cc1ccc2c(n1)sc1c(-c3ccc(Br)cc3)c(C#N)c(N)nc12
  EC50: > 80 µM (inactive)

## COc1ccc(-c2sc3ccccc3c2-c2ccc(OCCN(C)C)cc2)cc1
  EC50: > 80 µM (inactive)

## COc1ccc(-c2ccc3c(c2)S(=O)(=O)c2cccc(C(=O)NCCOc4ccccc4Cl)c2C3=O)cc1OC
  EC50: > 80 µM (inactive)

## Clc1ccc(C2=Nn3c(nnc3-c3cc(-c4ccccc4)n[nH]3)SC2)cc1
  EC50: > 80 µM (inactive)

## O=C(/C=C/c1ccccc1)NC(NC(=S)Nc1cccc(Cl)c1)C(Cl)(Cl)Cl (centres undefined)
  EC50: > 80 µM (inactive)

## CCOC(=O)c1c(NC(=O)CNC2CCCc3ccccc32)sc(C(N)=O)c1C (centres undefined)
  EC50: > 80 µM (inactive)

## CCc1nc(N=Nc2c(O)[nH]c3ccccc23)c2c3c(sc2n1)CCC3
  EC50: 16.1 µM

## COc1ccc2nc(C)cc(SCC(=O)N/N=C/c3cccc4ccccc34)c2c1
  EC50: 17.8 µM

## O=C(N/N=C/C(Br)=C\c1ccccc1)c1n[nH]c2c1CCC2
  EC50: > 80 µM (inactive)

## CCCCNC(=O)c1ccc(Cn2c(=S)[nH]c3c([nH]c4ccc(OC)cc43)c2=O)cc1
  EC50: > 80 µM (inactive)

## COc1cccc(-c2sc3ccccc3c2-c2ccc(OCCN(C)C)cc2)c1
  EC50: > 80 µM (inactive)

## CC1=CC(C)[C@H](/C=N/n2c(=O)[nH]c3c([nH]c4ccc(Br)cc43)c2=O)C(C)C1 (some centres undefined)
  EC50: > 80 µM (inactive)

## CCOc1cc(/C=C2/C(=N)N3C=CSC3=NC2=O)ccc1OCCCOc1ccccc1C
  EC50: > 80 µM (inactive)

## Cc1ccc(C(=O)Cn2c(C(=O)/C=C/c3ccccc3)nc3ccccc32)cc1
  EC50: 44.8 µM (inactive)

## O=C(Nc1ccc(Br)cc1)c1cc(-c2ccncc2)nc2ccccc12
  EC50: 11.1 µM

## CC1(C)CC(=O)C(C=Nc2ccc(C(=O)c3ccccc3)cc2N=CC2=C(O)CC(C)(C)CC2=O)=C(O)C1
  EC50: > 80 µM (inactive)

## Cc1nn(Cc2c(Cl)cccc2Cl)c(C)c1NC(=O)c1sc2ccccc2c1Cl
  EC50: 29.8 µM (inactive)

## Cc1ccc(Nc2nc(NCc3ccco3)c3ccccc3n2)cc1
  EC50: 17.8 µM

## COc1cc(NC(=O)c2ccc(C)cc2C)ccc1NC(=O)c1cc2ccccc2o1
  EC50: > 80 µM (inactive)

## Cc1c(C(=O)Nc2nccs2)oc2ccc(Br)cc12
  EC50: > 80 µM (inactive)

## CN(C)CC(CCC(CN(C)C)C(O)(c1ccccc1)c1ccccc1)C(O)(c1ccccc1)c1ccccc1 (centres undefined)
  EC50: > 80 µM (inactive)

## CCN(CC)c1ccc(-c2nn3c(-c4ccccc4OC)nnc3s2)cc1
  EC50: > 80 µM (inactive)

## COc1cccc(-c2c(-c3cc(OC)cc(OC)c3)n(C)c3ccc(-c4cnc(N5CCOCC5)nc4)cc23)c1
  EC50: 54.9 µM (inactive)
